Experimental data published in ChEMBL document CHEMBL5104172, “Design, synthesis, and antibacterial activity of derivatives of Tryptophanyl-tRNA synthetase inhibitor indolmycin” (Eur J Med Chem, 2022).
Converted amounts (≈) assume the structure as drawn.

Tests used:
[1] = Plasma protein binding in CD-1 mouse plasma incubated for 4 hrs and assessed as unbound fraction at 2 uM measured by LC/MS/MS analysis; type: ADME, cell-free
[2] = Plasma protein binding in CD-1 mouse plasma incubated for 4 hrs at 2 uM measured by LC/MS/MS analysis; type: ADME, cell-free; conditions: read-out: PPB (converted)
[3] = system: Staphylococcus epidermidis; assay: Antibacterial activity against methicillin-resistant Staphylococcus epidermidis MRSE17-6 measured by liquid dilution method; type: functional
Staphylococcus aureus [4] = assay: Antibacterial activity against methicillin-resistant Staphylococcus aureus ATCC 33591 measured by liquid dilution method; type: functional
[5] = system: Staphylococcus epidermidis; assay: Antibacterial activity against methicillin-sensitive Staphylococcus epidermidis MSSE17-1 measured by liquid dilution method; type: functional
Staphylococcus aureus [6] = assay: Antibacterial activity against methicillin-resistant Staphylococcus aureus MRSA17-1 measured by liquid dilution method; type: functional
Staphylococcus aureus [7] = assay: Antibacterial activity against methicillin-resistant Staphylococcus aureus ATCC 43300 measured by liquid dilution method; type: functional
[8] = system: Staphylococcus epidermidis; assay: Antibacterial activity against methicillin-sensitive Staphylococcus epidermidis MSSE17-2 measured by liquid dilution method; type: functional
[9] = system: Staphylococcus epidermidis; assay: Antibacterial activity against methicillin-sensitive Staphylococcus epidermidis MSSE17-3 measured by liquid dilution method; type: functional
Staphylococcus aureus [10] = assay: Antibacterial activity against vancomycin-intermediate Staphylococcus aureus ATCC 700699 measured by liquid dilution method; type: functional
Staphylococcus aureus [11] = assay: Antibacterial activity against methicillin-resistant Staphylococcus aureus MRSA17-2 measured by liquid dilution method; type: functional
[12] = system: Staphylococcus epidermidis; assay: Antibacterial activity against methicillin-resistant Staphylococcus epidermidis MRSE17-1 measured by liquid dilution method; type: functional
Enterococcus faecium [13] = assay: Antibacterial activity against Enterococcus faecium EFM17-1 measured by liquid dilution method; type: functional
Staphylococcus aureus [14] = assay: Antibacterial activity against methicillin-resistant Staphylococcus aureus MRSA17-6 measured by liquid dilution method; type: functional
Enterococcus faecium [15] = assay: Antibacterial activity against Enterococcus faecium EFM17-2 measured by liquid dilution method; type: functional
Staphylococcus aureus [16] = assay: Antibacterial activity against methicillin-sensitive Staphylococcus aureus MSSA17-2 measured by liquid dilution method; type: functional
Staphylococcus aureus [17] = assay: Antibacterial activity against methicillin-resistant Staphylococcus aureus MRSA17-3 measured by liquid dilution method; type: functional
[18] = system: Staphylococcus epidermidis; assay: Antibacterial activity against methicillin-resistant Staphylococcus epidermidis MRSE17-3 measured by liquid dilution method; type: functional
Staphylococcus aureus [19] = assay: Antibacterial activity against methicillin-sensitive Staphylococcus aureus MSSA17-1 measured by liquid dilution method; type: functional
Staphylococcus aureus [20] = assay: Antibacterial activity against methicillin-resistant Staphylococcus aureus MRSA17-5 measured by liquid dilution method; type: functional
Staphylococcus aureus [21] = assay: Antibacterial activity against vancomycin-intermediate Staphylococcus aureus measured by liquid dilution method; type: functional
Enterococcus faecalis [22] = assay: Antibacterial activity against Enterococcus faecalis ATCC 29212 measured by liquid dilution method; type: functional
Staphylococcus aureus [23] = assay: Antibacterial activity against Staphylococcus aureus ATCC 29213 measured by liquid dilution method; type: functional
Enterococcus faecalis [24] = assay: Antibacterial activity against Enterococcus faecalis EFA17-1 measured by liquid dilution method; type: functional
Helicobacter pylori = assay: Antibacterial activity against Helicobacter pylori measured by liquid dilution method; type: functional
Staphylococcus aureus [25] = assay: Antibacterial activity against methicillin-sensitive Staphylococcus aureus MSSA17-3 measured by liquid dilution method; type: functional
Staphylococcus aureus [26] = assay: Antibacterial activity against vancomycin-intermediate Staphylococcus aureus ATCC 700788 measured by liquid dilution method; type: functional
[27] = system: Staphylococcus epidermidis; assay: Antibacterial activity against methicillin-resistant Staphylococcus epidermidis MRSE17-4 measured by liquid dilution method; type: functional
[28] = system: Staphylococcus epidermidis; assay: Antibacterial activity against methicillin-resistant Staphylococcus epidermidis MRSE17-2 measured by liquid dilution method; type: functional
[29] = Stability in CD-1 mouse whole blood assessed as compound remaining at 2 uM and measured at 60 mins LC-MS/MS analysis; type: ADME, tissue-based; conditions: read-out: Stability
[30] = Stability in CD-1 mouse whole blood assessed as compound remaining at 2 uM and measured at 10 mins LC-MS/MS analysis; type: ADME, tissue-based; conditions: read-out: Stability
[31] = Stability in CD-1 mouse whole blood assessed as compound remaining at 2 uM and measured at 30 mins LC-MS/MS analysis; type: ADME, tissue-based; conditions: read-out: Stability
[32] = Stability in CD-1 mouse whole blood assessed as compound remaining at 2 uM and measured at 120 mins LC-MS/MS analysis; type: ADME, tissue-based; conditions: read-out: Stability

Row | SMILES | fraction unbound at 4 h, 2 µM [1] | fraction unbound at 4 h, 2 µM [2] | MIC [3] [µg/mL] | MIC (Staphylococcus aureus [4]) [µg/mL] | MIC [5] [µg/mL] | MIC (Staphylococcus aureus [6]) [µg/mL] | MIC (Staphylococcus aureus [7]) [µg/mL] | MIC [8] [µg/mL] | MIC [9] [µg/mL] | MIC (Staphylococcus aureus [10]) [µg/mL] | MIC (Staphylococcus aureus [11]) [µg/mL] | MIC [12] [µg/mL] | MIC (Enterococcus faecium [13]) [µg/mL] | MIC (Staphylococcus aureus [14]) [µg/mL] | MIC (Enterococcus faecium [15]) [µg/mL] | MIC (Staphylococcus aureus [16]) [µg/mL] | MIC (Staphylococcus aureus [17]) [µg/mL] | MIC [18] [µg/mL] | MIC (Staphylococcus aureus [19]) [µg/mL] | MIC (Staphylococcus aureus [20]) [µg/mL] | further results
1 | CC(=O)CC(c1ccccc1)c1c(O)c2ccccc2oc1=O (configuration not stated) [WARFARIN] | 0.098 | 0.098 |  |  |  |  |  |  |  |  |  |  |  |  |  |  |  |  |  |  | 
2 | CNC1=NC(=O)[C@H]([C@H](C)c2c[nH]c3ccccc23)O1 [INDOMYCIN] | 0.441 | 0.441 | 1 (≈ 3.89 µM) | 1 (≈ 3.89 µM) | 0.25 (≈ 0.972 µM) | 0.5 (≈ 1.94 µM) | 0.25 (≈ 0.972 µM) | 0.5 (≈ 1.94 µM) | 0.5 (≈ 1.94 µM) | 0.125 (≈ 0.486 µM) | 0.5 (≈ 1.94 µM) | 1 (≈ 3.89 µM) | > 128 | 0.25 (≈ 0.972 µM) | > 128 | 0.5 (≈ 1.94 µM) | 0.25 (≈ 0.972 µM) | 0.25 (≈ 0.972 µM) | 0.5 (≈ 1.94 µM) | 0.5 (≈ 1.94 µM) | MIC (Staphylococcus aureus [21]): 0.125 µg/mL (≈ 0.486 µM); MIC (Enterococcus faecalis [22]): > 128 µg/mL; MIC (Staphylococcus aureus [23]): 0.5 µg/mL (≈ 1.94 µM); MIC (Enterococcus faecalis [24]): > 128 µg/mL; MIC90 (Helicobacter pylori): 0.031 µg/mL (≈ 0.12 µM); MIC (Staphylococcus aureus [25]): 0.25 µg/mL (≈ 0.972 µM); MIC (Staphylococcus aureus [26]): 0.25 µg/mL (≈ 0.972 µM); MIC [27]: 1 µg/mL (≈ 3.89 µM); MIC [28]: 1 µg/mL (≈ 3.89 µM)
3 | CC(C)[N+](C)(CCOC(=O)C1c2ccccc2Oc2ccccc21)C(C)C [PROPANTHELINE BROMIDE] |  |  |  |  |  |  |  |  |  |  |  |  |  |  |  |  |  |  |  |  | remaining at 1 h, 2 µM [29]: 64.7%; remaining at 10 min, 2 µM [30]: 93.5%; remaining at 0.5 h, 2 µM [31]: 82.9%; remaining at 2 h, 2 µM [32]: 38.3%
4 | CNC1=NC(=O)[C@H]([C@H](C)c2c[nH]c3cccc(Cl)c23)O1 | 0.134 | 0.134 | 1 (≈ 3.43 µM) | 2 (≈ 6.86 µM) | 0.25 (≈ 0.857 µM) | 1 (≈ 3.43 µM) | 1 (≈ 3.43 µM) | 0.5 (≈ 1.71 µM) | 0.5 (≈ 1.71 µM) | 0.5 (≈ 1.71 µM) | 1 (≈ 3.43 µM) | 1 (≈ 3.43 µM) | > 128 | 1 (≈ 3.43 µM) | > 128 | 1 (≈ 3.43 µM) | 0.5 (≈ 1.71 µM) | 0.25 (≈ 0.857 µM) | 1 (≈ 3.43 µM) | 1 (≈ 3.43 µM) | MIC (Enterococcus faecalis [22]): > 128 µg/mL; MIC (Staphylococcus aureus [23]): 2 µg/mL (≈ 6.86 µM); MIC (Enterococcus faecalis [24]): > 128 µg/mL; MIC (Staphylococcus aureus [25]): 0.5 µg/mL (≈ 1.71 µM); MIC (Staphylococcus aureus [26]): 1 µg/mL (≈ 3.43 µM); MIC [27]: 1 µg/mL (≈ 3.43 µM); MIC [28]: 0.5 µg/mL (≈ 1.71 µM)
5 | CNC1=NC(=O)[C@@H]([C@@H](C)c2c[nH]c3ccccc23)O1 |  |  | > 128 | > 128 | > 128 | > 128 | > 128 | > 128 | > 128 | > 128 | > 128 | > 128 | > 128 | > 128 | > 128 | > 128 | > 128 | > 128 | > 128 | > 128 | MIC (Enterococcus faecalis [22]): > 128 µg/mL; MIC (Staphylococcus aureus [23]): > 128 µg/mL; MIC (Enterococcus faecalis [24]): > 128 µg/mL; MIC (Staphylococcus aureus [25]): > 128 µg/mL; MIC (Staphylococcus aureus [26]): > 128 µg/mL; MIC [27]: > 128 µg/mL; MIC [28]: > 128 µg/mL
